# Test results: paper PMC10703884, “Targeting the COMMD4–H2B protein complex in lung cancer” (British Journal of Cancer, 2023)
# Entries after “also recorded” stand apart in the source; their conditions may differ. No end group written: not given here.
# Key:
# [1] = test system: H460, H1299 and CRL5889 NSCLC cells; test: Clonogenic cell viability after IR, NSCLC cells; format: cell-based; conditions: varying IR doses, 7–10 days recovery, three independent experiments, compared to control siRNA or FLAG-H2BMUT1/mock
# Protocol: (§1) H1299, CRL5889 and H460 cells were cultured in Roswell Park Memorial Institute (RPMI) 1640 medium (Life Technologies) containing 10% foetal bovine serum (Thermo Fisher Scientific). Human bronchial epithelial cells (HBEC3-KT) were maintained in keratinocyte serum-free medium supplemented with epidermal growth factor and bovine pituitary extract (Life Technologies). The histology features and origin of all cell lines used have been previously described. Cell lines were authenticated using STR profiling. Cells were grown in a humidified incubator at 37 °C/5% CO2 atmosphere. All cell lines were verified to be free of mycoplasma contamination.
# (§2) Irradiations were done at room temperature using a ^137Cs source (Gammacell 40 Exactor [MDS Nordion]; dose rate 1.1 Gy/min). Phalloidin-Atto 488 was purchased from Sigma-Aldrich and Hoechst 33342 was purchased from Thermo Fisher Scientific.
# (§3) For siRNA transfections, cells were transfected with negative control or COMMD4 siRNA #2 (CCAUGUCCCUCUCAGCAGA[dT][dT] MISSION® siRNA, Sigma-Aldrich) using RNAiMax (Life Technologies) as previously described and samples were analysed 48 to 72 h post-transfection. […] Cells were mock-transfected, or transfected with FLAG-H2BWT/FLAG-H2BMUT1, or COMMD4-FLAG/A70K with FuGENE® HD (Promega) using the manufacturer’s protocol and analysed 24 h post-transfection. […]
# HBEC3-KT cells [2] = test: Clonogenic cell viability after IR, HBEC3-KT cells; format: cell-based, Human; conditions: varying IR doses, 7–10 days recovery, three independent experiments
# Protocol: as §1, §2, §3
# NSCLC cells = test: Immunofluorescence γH2AX and MDC1 foci, NSCLC cells; format: cell-based; conditions: 6 Gy IR, 0.5 to 2 h post-IR, 50 cells per condition, three independent experiments
# Protocol: (§4) For siRNA transfections, cells were transfected with negative control or COMMD4 siRNA #2 (CCAUGUCCCUCUCAGCAGA[dT][dT] MISSION® siRNA, Sigma-Aldrich) using RNAiMax (Life Technologies) as previously described and samples were analysed 48 to 72 h post-transfection. The H2B wild-type (FLAG-H2BWT) and mutant (FLAG-H2BMUT1) expression constructs were generated with the 10-amino acid peptide and the corresponding mutant cloned into the expression vector pCDNA3.1/(+)-N-DYK containing an N-terminal FLAG tag and a C-terminal nuclear localisation signal (AAKRVKLDS) (GenScript). A70K FLAG-COMMD4 expression construct was generated by mutating the corresponding COMMD4-FLAG construct to harbour an A70K mutation (GenScript). Cells were mock-transfected, or transfected with FLAG-H2BWT/FLAG-H2BMUT1, or COMMD4-FLAG/A70K with FuGENE® HD (Promega) using the manufacturer’s protocol and analysed 24 h post-transfection.
# NSCLC and control cells transfected with siRNA or H2B plasmids were grown in optical glass bottom 96-well plates (Cellvis). Post-treatment, cells were pre-extracted with ice-cold extraction buffer (20 mM HEPES (pH 8), 20 mM NaCl, 5 mM MgCl2, 1 mM ATP, 0.5% NP40), to remove the soluble proteins and processed as previous. Images were captured using a Delta Vision PDV microscope 100x/1.42 Oil objective (Applied Precision, Inc). All immunofluorescence figures were assembled using Adobe Photoshop. High-content microscopy was performed using the InCell Analyzer 6500 Imaging System (GE Healthcare Life Sciences). Images were analysed using the InCarta Image Analysis software (GE Healthcare Life Sciences) where a minimum of 50 nuclei were quantified per experiment.
# Fig. 4 Induction of DSBs in NSCLC and control cells. a Immunofluorescence staining of H1299 NSCLC cells transfected with control or COMMD4 siRNA #2 and FLAG-H2BWT or FLAG-H2BMUT1 is shown. […]
# independent experiments where 50 cells were quantified per condition. γH2AX is shown in […]
# mean ± SD from three independent experiments where 50 cells were quantified per condition.
# HBEC3-KT cells [3] = test: Immunofluorescence γH2AX and MDC1 foci, HBEC3-KT cells; format: cell-based, Human; conditions: 6 Gy IR, 50 cells per condition, three independent experiments
# Protocol: as §4
# NSCLC and control cells transfected with siRNA or H2B plasmids were grown in optical glass bottom 96-well plates (Cellvis). Post-treatment, cells were pre-extracted with ice-cold extraction buffer (20 mM HEPES (pH 8), 20 mM NaCl, 5 mM MgCl2, 1 mM ATP, 0.5% NP40), to remove the soluble proteins and processed as previous. […] Images were analysed using the InCarta Image Analysis software (GE Healthcare Life Sciences) where a minimum of 50 nuclei were quantified per experiment. […]
# HBEC3-KT cells [4] = test: Annexin V-FITC / propidium iodide apoptosis, HBEC3-KT cells; format: cell-based, Human; conditions: flow cytometry, three independent experiments
# Protocol: as §4, with “A70K FLAG-COMMD4 expression construct was generated by mutating the corresponding COMMD4-FLAG construct to harbour an A70K mutation (GenScript).” left out
# The Annexin V-FITC apoptosis kit (United Bioresearch, ALX-850-020-K101, Enzo Life Sciences, Farmingdale, NY, USA) was used to measure viable and apoptotic cells, as previously described. […] CytExpert 2.0 software was used for data acquisition and analysed using the FlowJo v10 software.
# Fig. 5 Induction of mitotic catastrophe and apoptosis in NSCLC cells. a Emerin and phalloidin staining respectively in three NSCLC and control HBEC3-KT cells. […] Asterix (*) denotes *P < 0.05 and ** P < 0.005 from 100 cells counted. […] The live cells were stained with Annexin V-FITC and propidium iodide and analysed by flow cytometer. […]
# [5] = Circular dichroism (CD) of H2B peptides; format: physicochemical; conditions: 0.1 mg/ml peptide, 50% TFE, 10 mM phosphate pH 7.2, 50 mM sodium fluoride, 20 °C, average of five scans
# Protocol: For Circular Dichroism (CD), […] and H2BMUT1 peptides were resuspended at a concentration of 0.1 mg/ml in 50% 2,2,2-Trifluoroethanol (Sigma, T63002) with 10 mM Phosphate Buffer pH 7.2 and 50 mM sodium fluoride. The buffer solutions were filtered and degassed before diluting the peptides. The peptides were loaded into a 1 mm path-length quartz cuvette. CD spectra were measured at 20 °C in the far-UV from 250 to 190 nm with a Jasco J-1500 spectropolarimeter at a 0.1 nm interval with a 20 nm/min scan rate. All CD data represent an average of five scans, and the background was corrected with the buffer-matched diluent. The results were converted to the units of molar ellipticity vs. wavelength.
# COMMD4-H2B interaction = test: COMMD4 pull-down competition (COMMD4-H2B interaction); format: biochemical; conditions: 1 μg (or amount specified) peptide pre-incubated with recombinant COMMD4 (300 ng) 30 min 4 °C, then 1 μg recombinant H2B 30 min 4 °C, immunoblot
# Protocol: 300 ng of recombinant GST-COMMD4 (Abnova, H00054939-P01) was incubated with 1 μg of recombinant H2B (NEB, M2505S) in NP40 buffer for 30 min at 4 °C. For competition experiments, 1 μg (or the amount specified) of the N-terminal biotin-tagged H2B peptide (GenScript) was pre-incubated with recombinant COMMD4 for 30 min at 4 °C prior to addition of recombinant H2B. Proteins were captured using Streptavidin Dynabeads (ThermoFisher) or Protein A Dynabeads (ThermoFisher), washed three times in NP40 buffer, resuspended in 4X Leammli sample buffer (250 mM Tris pH 6.8, 8% SDS, […], 0.02% bromophenol blue, 8% β-mercaptoethanol) and immunoblotted with the indicated antibodies.
# Fig. 2 In vitro binding of the H2B peptide. a In vitro binding of biotin-tagged H2B 10-amino acid peptide (H2BWTpep) and H2BMUT1pep (mutation of key amino acid) with COMMD4. […] FLAG-H2BWT and FLAG-H2BMUT1 were immunoprecipitated from HEK293T cells and the co-eluting proteins were immunoblotted with antibodies against […] and FLAG.
# H2B = test: FLAG pull-down, COMMD4-FLAG versus A70K mutant with H2B; format: binding; conditions: compared to COMMD4-FLAG
# Protocol: as §4
# Co-immunoprecipitations were performed as previously summarised, using ice-cold NP40 buffer. Assays for co-immunoprecipitations were performed at 4 °C from HEK293T, transiently expressing the FLAG-H2B WT or MUT plasmid. Proteins were captured using anti-FLAG M2 Dynabeads (ThermoFisher) and washed three times in NP40 buffer prior to analysis. […]
# recombinant GST-COMMD4 = biological target: T1, recombinant GST-COMMD4 (Homo sapiens, UniProt Q9H0A8); test: ELISA, binding of H2B peptide and recombinant COMMD4; conditions: H2B peptide 10 μg/ml on NeutrAvidin plate 2 h; recombinant GST-COMMD4 at different concentrations 45 min, room temperature; anti-COMMD4 antibody, chemiluminescent substrate
# T1 construct: purchased Abnova H00054939-P01
# T1 sequence (Q9H0A8 whole entry): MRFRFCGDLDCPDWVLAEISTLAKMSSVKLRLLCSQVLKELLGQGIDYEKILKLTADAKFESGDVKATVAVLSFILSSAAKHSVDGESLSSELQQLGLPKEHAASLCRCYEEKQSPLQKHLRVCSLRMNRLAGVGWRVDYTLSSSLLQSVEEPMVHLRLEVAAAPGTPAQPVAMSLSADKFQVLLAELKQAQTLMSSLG
# Protocol: ELISA was performed using NeutrAvidin High Binding Capacity Coated 96-Well Plates (Thermo Scientific, 15507) according to the manufacturer’s instructions. Briefly, to the appropriate well, added 100 μl of H2B peptide at 10 μg/ml for 2 h at room temperature. Washed each well three times with NP40 buffer, blocked the plate overnight with 4% BSA in NP40 buffer and the next day added different concentrations of recombinant GST-COMMD4 as shown, for 45 min at room temperature. Washed each well three times with NP40 buffer and added anti-COMMD4 antibody for 45 min at room temperature followed by the enzyme-linked secondary antibody for 30 min at room temperature followed by detection using SuperSignal ELISA Pico Chemiluminescent Substrate (Thermo Scientific, 37070).
substance,measurement,setting,value
"CCAUGUCCCUCUCAGCAGA[dT][dT] [COMMD4 siRNA, reference compound]",sensitivity to ionising radiation (clonogenic viability),[1],hypersensitive to IR compared to control siRNA treated cells
same,sensitivity to ionising radiation (clonogenic viability),HBEC3-KT cells [2],neither hypersensitive to IR
same,γH2AX and MDC1 (DNA repair) foci,NSCLC cells,significantly more γH2AX and MDC1 foci
same,γH2AX and MDC1 (DNA repair) foci,HBEC3-KT cells [3],exhibited increased DNA repair foci
FLAG-H2BMUT1: corresponding mutant cloned into expression vector containing an N-terminal FLAG tag and a C-terminal nuclear localisation signal ({FLAG}-SFVNDKFERIAAKRVKLDS),γH2AX and MDC1 (DNA repair) foci,NSCLC cells,"not FLAG-H2BMUT1, displayed a similar phenotype to COMMD4 siRNA depleted cells and had significantly more DNA repair foci"
same,induction of apoptosis,HBEC3-KT cells [4],no significant induction of apoptosis
SFVNDKFERI [H2BMUT1pep],peak ellipticity maximum,[5]; 1 mm path length,190 nm
same,peak minimum,[5]; 1 mm path length,202 nm
same,secondary structure / helicity,[5],possesses little helical structure even in 50% TFE
same,effect on COMMD4-H2B interaction,COMMD4-H2B interaction,did not affect the COMMD4-H2B interaction; also recorded: maintains the COMMD4-H2B interaction
A70K COMMD4-FLAG: COMMD4-FLAG construct mutated to harbour an A70K mutation,binding with H2B of COMMD4 mutant,H2B,showed reduced binding with H2B
SFVNDIFERI [H2BWTpep],EC50,recombinant GST-COMMD4,70 nM
